Data reported in patent publication US20060252807A1, “Novel ortho-terphenyl inhibitors of p38 kinase and methods of treating inflammatory disorders” (Kalypsys, Inc., priority 2005, published 2006).

target: T1, active p38 alpha enzyme (Upstate Biotechnology) (Homo sapiens, UniProt Q16539); experiment: p38α biochemical assay (ATP turnover, luminescent detection, Cambrex PKlight); details: p38α kinase; Table 1 Biological Activity
T1 construct: purchased Upstate Biotechnology
Summary of the method: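 Active p38α phosphorylates MapkapK2 whole protein with 1.4 uM final ATP, 2 h at 30C, in Tris/MOPS buffer with MgCl2, CaCl2, EGTA, EDTA, glycerol, β-mercaptoethanol and 1 mg/ml BSA. Compounds pin-delivered from DMSO; total ATP turnover read by luminescence after PKlight addition.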

T1 sequence (Q16539 whole entry): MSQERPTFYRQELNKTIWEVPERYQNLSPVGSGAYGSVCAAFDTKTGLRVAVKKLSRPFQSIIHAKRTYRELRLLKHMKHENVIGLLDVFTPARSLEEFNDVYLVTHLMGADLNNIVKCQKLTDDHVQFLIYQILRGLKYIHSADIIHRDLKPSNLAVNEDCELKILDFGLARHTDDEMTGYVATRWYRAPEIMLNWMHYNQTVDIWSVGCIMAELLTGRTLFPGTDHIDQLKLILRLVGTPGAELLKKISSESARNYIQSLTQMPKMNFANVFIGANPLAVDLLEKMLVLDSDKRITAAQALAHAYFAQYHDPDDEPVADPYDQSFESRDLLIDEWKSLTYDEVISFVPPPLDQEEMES

Row | SMILES | IC50 [µM]
1 | CC(C)NC(=O)c1csc(-c2c(-c3ccc(F)cc3)n[nH]c2C2CCN(C(=O)c3ccc(Cl)c(Br)c3)CC2)n1 [Example 1035] | > 1
2 | CC(C)NC(=O)c1csc(-c2c(-c3ccc(F)cc3)n[nH]c2C2CCN(C(=O)c3ccccc3C(=O)c3ccc(F)cc3)CC2)n1 [Example 1037] | > 1
3 | CC(C)NC(=O)c1csc(-c2c(-c3ccc(F)cc3)n[nH]c2C2CCN(C(=O)C3CCCN3C(=O)OCc3ccccc3)CC2)n1 (centres unmarked) [Example 1041] | > 1
4 | CC(C)CC(NC(=O)OC(C)(C)C)C(=O)N1CCC(c2[nH]nc(-c3ccc(F)cc3)c2-c2nc(C(=O)NC(C)C)cs2)CC1 (centres unmarked) [Example 1043] | ≤ 1
5 | CC(C)NC(=O)c1csc(-c2c(-c3ccc(F)cc3)n[nH]c2C2CCN(C(=O)C(Cc3ccccn3)NC(=O)OC(C)(C)C)CC2)n1 (centres unmarked) [Example 1046] | > 1
6 | CC(C)NC(=O)c1csc(-c2c(-c3ccc(F)cc3)n[nH]c2C2CCN(C(=O)C3Cc4ccccc4CN3C(=O)OC(C)(C)C)CC2)n1 (centres unmarked) [Example 1047] | > 1
7 | CC(C)NC(=O)c1csc(-c2c(-c3ccc(F)cc3)n[nH]c2C2CCN(C(=O)C(Cc3ccc(O)cc3)NC(=O)OC(C)(C)C)CC2)n1 (centres unmarked) [Example 1048] | > 1
8 | CNCc1nc(-c2ccc(F)cc2)c(-c2nc(C(=O)NC(C)C)cs2)o1 [Example 1049] | > 1
9 | C#CCNCc1nc(-c2ccc(F)cc2)c(-c2nc(C(=O)NC(C)C)cs2)o1 [Example 1051] | > 1
10 | CC(C)NC(=O)c1csc(-c2oc(CNCC#N)nc2-c2ccc(F)cc2)n1 [Example 1052] | > 1
11 | CC(C)NC(=O)c1csc(-c2oc(CNC3CC3)nc2-c2ccc(F)cc2)n1 [Example 1053] | > 1
12 | CCCNCc1nc(-c2ccc(F)cc2)c(-c2nc(C(=O)NC(C)C)cs2)o1 [Example 1055] | > 1
13 | CC(C)NC(=O)c1csc(-c2oc(CNCCO)nc2-c2ccc(F)cc2)n1 [Example 1057] | > 1
14 | CC(C)NC(=O)c1csc(-c2oc(CNCCC#N)nc2-c2ccc(F)cc2)n1 [Example 1058] | > 1
15 | CC(C)NC(=O)c1csc(-c2oc(CNC3CCC3)nc2-c2ccc(F)cc2)n1 [Example 1059] | > 1
16 | CC(C)NC(=O)c1csc(-c2oc(CNCCCO)nc2-c2ccc(F)cc2)n1 [Example 1063] | > 1
17 | CC(C)NC(=O)c1csc(-c2oc(CNC(C)CO)nc2-c2ccc(F)cc2)n1 (centres unmarked) [Example 1064] | ≤ 1
18 | COCCNCc1nc(-c2ccc(F)cc2)c(-c2nc(C(=O)NC(C)C)cs2)o1 [Example 1065] | ≤ 1

Row | SMILES | IC50 [µM]
19 | CC(C)NC(=O)c1csc(-c2oc(CNC3CCCC3)nc2-c2ccc(F)cc2)n1 [Example 1066] | > 1
20 | CCCC(C)NCc1nc(-c2ccc(F)cc2)c(-c2nc(C(=O)NC(C)C)cs2)o1 (centres unmarked) [Example 1067] | > 1
21 | CC(C)NC(=O)c1csc(-c2oc(CNC(C)C(C)C)nc2-c2ccc(F)cc2)n1 (centres unmarked) [Example 1069] | ≤ 1
22 | CC(C)CCNCc1nc(-c2ccc(F)cc2)c(-c2nc(C(=O)NC(C)C)cs2)o1 [Example 1070] | > 1
23 | CC(C)NC(=O)c1csc(-c2oc(CNCCN(C)C)nc2-c2ccc(F)cc2)n1 [Example 1071] | > 1
24 | COCC(C)NCc1nc(-c2ccc(F)cc2)c(-c2nc(C(=O)NC(C)C)cs2)o1 (centres unmarked) [Example 1072] | > 1
25 | CCC(CO)NCc1nc(-c2ccc(F)cc2)c(-c2nc(C(=O)NC(C)C)cs2)o1 (centres unmarked) [Example 1073] | > 1
26 | CC(C)NC(=O)c1csc(-c2oc(CNCCCCO)nc2-c2ccc(F)cc2)n1 [Example 1075] | > 1
27 | CC(C)NC(=O)c1csc(-c2oc(CNCc3ccco3)nc2-c2ccc(F)cc2)n1 [Example 1076] | > 1
28 | CC(C)NC(=O)c1csc(-c2oc(CNC3CCCCC3)nc2-c2ccc(F)cc2)n1 [Example 1077] | > 1
29 | CC(C)NC(=O)c1csc(-c2oc(CNCC3CCCO3)nc2-c2ccc(F)cc2)n1 (centres unmarked) [Example 1078] | > 1
30 | CC(C)CC(C)NCc1nc(-c2ccc(F)cc2)c(-c2nc(C(=O)NC(C)C)cs2)o1 (centres unmarked) [Example 1080] | > 1
31 | CC(C)NC(=O)c1csc(-c2oc(CNC3CONC3=O)nc2-c2ccc(F)cc2)n1 (centres unmarked) [Example 1081] | > 1
32 | CC(C)NC(=O)c1csc(-c2oc(CNN3CCOCC3)nc2-c2ccc(F)cc2)n1 [Example 1082] | > 1
33 | CC(C)NC(=O)c1csc(-c2oc(CNC(CO)C(C)C)nc2-c2ccc(F)cc2)n1 (centres unmarked) [Example 1083] | > 1
34 | CC(C)NC(=O)c1csc(-c2oc(CNCc3ccccc3)nc2-c2ccc(F)cc2)n1 [Example 1084] | > 1
35 | CC(C)NC(=O)c1csc(-c2oc(CNCc3cccnc3)nc2-c2ccc(F)cc2)n1 [Example 1085] | > 1

The next lines start with the values.

Row | IC50 [µM] | SMILES
36 | ≤ 1 | CC(C)NC(=O)c1csc(-c2c(-c3ccc(F)cc3)n[nH]c2C2CCN(C(=O)C3CC(O)CN3C(=O)OC(C)(C)C)CC2)n1 (centres unmarked) [Example 1031]
37 | ≤ 1 | CC(C)NC(=O)c1csc(-c2c(-c3ccc(F)cc3)n[nH]c2C2CCN(C(=O)C(C(C)C)N(C)C(=O)OC(C)(C)C)CC2)n1 (centres unmarked) [Example 1032]
38 | > 1 | CC(C)NC(=O)c1csc(-c2c(-c3ccc(F)cc3)n[nH]c2C2CCN(C(=O)c3ccc(C(F)(F)F)cc3[N+](=O)[O-])CC2)n1 [Example 1033]
39 | > 1 | CC(C)NC(=O)c1csc(-c2c(-c3ccc(F)cc3)n[nH]c2C2CCN(C(=O)c3cc(Br)ccc3Cl)CC2)n1 [Example 1034]
40 | > 1 | CC(C)NC(=O)c1csc(-c2c(-c3ccc(F)cc3)n[nH]c2C2CCN(C(=O)c3ccccc3C(=O)c3ccc(O)cc3)CC2)n1 [Example 1036]
41 | > 1 | CC(C)NC(=O)c1csc(-c2c(-c3ccc(F)cc3)n[nH]c2C2CCN(C(=O)C(C)c3ccc(-c4ccccc4)c(F)c3)CC2)n1 (centres unmarked) [Example 1038]
42 | > 1 | CCC(C)C(NC(=O)OC(C)(C)C)C(=O)N1CCC(c2[nH]nc(-c3ccc(F)cc3)c2-c2nc(C(=O)NC(C)C)cs2)CC1 (centres unmarked) [Example 1042]
43 | > 1 | CC(C)NC(=O)c1csc(-c2c(-c3ccc(F)cc3)n[nH]c2C2CCN(C(=O)C(C)c3cccc(C(=O)c4ccccc4)c3)CC2)n1 (centres unmarked) [Example 1044]
44 | > 1 | CC(C)NC(=O)c1csc(-c2c(-c3ccc(F)cc3)n[nH]c2C2CCN(C(=O)C(Cc3ccccc3)NC(=O)OC(C)(C)C)CC2)n1 (centres unmarked) [Example 1045]
45 | > 1 | CCNCc1nc(-c2ccc(F)cc2)c(-c2nc(C(=O)NC(C)C)cs2)o1 [Example 1050]
46 | > 1 | CC(C)NCc1nc(-c2ccc(F)cc2)c(-c2nc(C(=O)NC(C)C)cs2)o1 [Example 1054]
47 | > 1 | CC(C)NC(=O)c1csc(-c2oc(CNCCN)nc2-c2ccc(F)cc2)n1 [Example 1056]
48 | > 1 | CC(C)NC(=O)c1csc(-c2oc(CNCC3CC3)nc2-c2ccc(F)cc2)n1 [Example 1060]
49 | > 1 | CCC(C)NCc1nc(-c2ccc(F)cc2)c(-c2nc(C(=O)NC(C)C)cs2)o1 (centres unmarked) [Example 1061]
50 | > 1 | CC(C)CNCc1nc(-c2ccc(F)cc2)c(-c2nc(C(=O)NC(C)C)cs2)o1 [Example 1062]
51 | > 1 | CCC(C)CNCc1nc(-c2ccc(F)cc2)c(-c2nc(C(=O)NC(C)C)cs2)o1 (centres unmarked) [Example 1068]
52 | ≤ 1 | CCC(CO)NCc1nc(-c2ccc(F)cc2)c(-c2nc(C(=O)NC(C)C)cs2)o1 (centres unmarked) [Example 1074]
53 | ≤ 1 | CC(C)NC(=O)c1csc(-c2oc(CNCCC(C)(C)C)nc2-c2ccc(F)cc2)n1 [Example 1079]
